In US20100240764A1, “Use of S-Clenbuterol” (EUCRO EUROPEAN CONTRACT RESEARCH GMBH & CO. KG, priority 2005, published 2010):

Tests used:
hippocampal neurons [1] = test: Staurosporine (STS)-induced apoptosis in cultured hippocampal neurons, Hoechst 33258 nuclear staining; type: cell-based, rat; conditions: 10 μM enantiomer added before STS 200 nM; apoptotic nuclei quantified 18 h after exposure; vs STS-treated controls (FIG. 1)
Experimental: (§1) Neuronal cultures. Mixed primary cultures of hippocampal neurons and glial cells were prepared from neonatal Fischer 344 rats as described in Brain Research 1717 (1996) 44-54. Experiments were carried out after 10 days in culture. The NMDA antagonist memantine (Merz, Germany) and clenbuterol were applied 1 h or 5 h before exposure of the cells to glutamate (500 μmol/L, 1 h), respectively. For induction of excitotoxic cell death, medium (conditioned medium) was collected and glutamate-containing medium was added, and then exchanged again after 1 h by the conditioned ? enantiomeres were present in the culture medium also during and after exposure to glutamate. For induction of apoptosis, neurons were exposed to staurosporine (STS, 200 nmol/L, Sigma) […]. Cell death was determined by the trypan blue exclusion method or after staining the nuclei with the DNA-binding fluorochrom Hoechst 33258 as in Brain Research 1717 (1996) 44-54 and in STROKE 2004, 35: 1197-1202.
The protective effects of the clenbuterol enantiomers in cultured neurons exposed to STS (200 nM) which induced apoptosis or glutamate (500 μM) which induced ecitotoxic cell death with morphological features of necrosis. The Clenbuterol enantiomeres were added to the culture medium at a concentration of 10 μM h before the onset of apoptotic or excitotoxic stress. […]

rat uterus = conditions: Clenbuterol isomers; literature; cited from earlier work
[2] = literature, Eur J Pharmacol 117 (1985) 127-129; cited from earlier work
hippocampal neurons [3] = test: Glutamate-induced excitotoxic cell death in cultured hippocampal neurons, trypan blue exclusion; type: cell-based, rat; conditions: 10 μM, glutamate 500 μM for 1 h; for protection of neurons against glutamate excitotoxic insult: trypan blue-stained cultures 18 h after exposure (FIG. 2)
Experimental: as §1
The protective effects of the clenbuterol enantiomers in cultured neurons exposed to STS (200 nM) which induced apoptosis or glutamate (500 μM) which induced ecitotoxic cell death with morphological features of necrosis. The Clenbuterol enantiomeres were added to the culture medium at a concentration of 10 μM h before the onset of apoptotic or excitotoxic stress. […] Further, it was investigated whether such differences in the protective effect of the clenbuterol enantiomers could also be observed in a paradigm of necrotic cell death induced by glutamate.

[4] = literature, Eur J Pharmacol 446 (2002) 25-36; cited from earlier work

SMILES	STS-induced neuronal cell death (apoptotic nuclei) (hippocampal neurons [1])	relaxant response in rat uterus (rat uterus)	activity in psychopharmacological tests (CNS-effect) [2]	number of trypan blue positive neurons (hippocampal neurons [3]; 18 h after exposure)	protection of neurons against glutamate excitotoxic insult (hippocampal neurons [3])	effects in preclinical models of neuroprotection [4]
CC(C)(C)NC[C@@H](O)c1cc(Cl)c(N)c(Cl)c1 [S-Clenbuterol]	significantly attenuated STS-induced neuronal cell death	not involved in the effects	did not show any CNS-effect	reduced the number of trypan blue positive neurons to control levels	significantly protected the neurons against the excitotoxic insult	
CC(C)(C)NCC(O)c1cc(Cl)c(N)c(Cl)c1 (racemic) [racemic Clenbuterol, Clenbuterol]						positive effects
CC(C)(C)NC[C@H](O)c1cc(Cl)c(N)c(Cl)c1 [R-clenbuterol]	did not affect STS-induced apoptosis	shows the effect	based only on the (−)-enantiomer		did not show any protective effect	
